Results reported in patent US20230192706A1, “BICYCLIC AMINES AS CDK2 INHIBITORS” (Incyte Corporation, priority 2021, published 2023).

Molecular target: T1, CDK2/Cyclin E1 (Homo sapiens, UniProt P24941)
T1 construct: full-length human CDK2 co-expressed as N-terminal GST-tagged protein; GST (N); purchased Carna 04-165; host or cells: baculovirus expression system
Experiment: CDK2/Cyclin E1 HTRF enzyme activity assay
Assay type: biochemical
Settings: 1 mM ATP; CDK2/Cyclin E1 0.25 nM; 60 minutes at room temperature
Procedure: CDK2/Cyclin E1 enzyme activity assays utilize full-length human CDK2 co-expressed as N-terminal GST-tagged protein with FLAG-Cyclin E1 in a baculovirus expression system (Carna Product Number 04-165). Assays were conducted in white 384-well polystyrene plates in a final reaction volume of 8 µL. CDK2/Cyclin E1 (0.25 nM) was incubated with the compounds of the Examples (40 nL serially diluted in DMSO) in the presence of ATP (50 µM or 1 mM) and 50 nM ULight^Tm-labeled eIF4E-binding protein 1 (THR37/46) peptide (PerkinElmer) in assay buffer (containing 50 mM HEPES pH 7.5, 1 mM EGTA, 10 mM MgCl2, 2 mM DTT, 0.05 mg/mL BSA, and 0.01% Tween 20) for 60 minutes at room temperature. The reactions were stopped by the addition of EDTA and Europium-labeled anti-phospho-4E-BP1 antibody (PerkinElmer), for a final concentration of 15 mM and 1.5 nM, respectively. HTRF signals were read after 1 hour at room temperature on a PHERAstar FS plate reader (BMG Labtech). Data was analyzed with IDBS XLFit and GraphPad Prism 5.0 software using a three or four parameter dose response curve to determine IC50 for each compound.

Row | Structure (SMILES) | IC50 [nM]
1 | F[C@@H]1CCN(c2c(-c3cn[nH]c3)ccn3nc(N[C@H]4CCOC[C@H]4F)nc23)C1 [Example 3, 8—((R)—3-Fluoropyrrolidin-1-yl)-N((3S,4S)-3-fluorotetrahydro-2H-pyran-4-yl)-7-(1H-pyrazol-4-yl)-[1,2,4]triazolo[1,5-α]pyridin-2-amine] | < 10
2 | CC(C)Oc1c(-c2cn[nH]c2)ncn2nc(N[C@H]3CCOC[C@H]3F)nc12 [Example 7, N-((3S, 4S)-3-Fluorotetrahydro-2H-pyran-4-yl)-8-isopropoxy-7-(1H-pyrazol-4-yl)-[1,2,4]triazolo[1,5-c]pyrimidin-2-amine] | < 10
3 | FC(F)C1(Oc2c(-c3cn[nH]c3)ncc3nc(N[C@H]4CCOC[C@H]4F)nn23)CCC1 [Example 10, 5-(1-(Difluoromethyl)cyclobutoxy)-N-((3S,4S)-3-fluorotetrahydro-2H-pyran-4-yl)-6-(1H-pyrazol-4-yl)-[1,2,4]triazolo[1,5-α]pyrazin-2-amine] | < 10
4 | Cc1cc(-c2c(-c3cn[nH]c3)ccn3nc(NC4CCOCC4)nc23)ccc1C#N [Example 1, 4-(7-(1H-Pyrazol-4-yl)-2-((tetrahydro-2H-pyran-4-yl)aminoamino)-[1,2,4]triazolo[1,5-a]pyridin-8-yl)-2-methylbenzonitrile] | < 10
5 | C[C@@H](Oc1c(-c2cn[nH]c2)ncc2nc(N[C@H]3CCOC[C@H]3F)nn12)C(F)(F)F [Example 9, N-((3S,4S)-3-Fluorotetrahydro-2H-pyran-4-yl)-6-(1H-pyrazol-4-yl)-5—(((R)—1,1,1-trifluoropropan-2-yl)oxy)-[1,2,4]triazolo[1,5-α]pyrazin-2-amine] | < 10
6 | C[C@H](Oc1c(-c2cn[nH]c2)ncc2nc(N[C@H]3CCOC[C@H]3F)nn12)C(F)(F)F [Example 8, N-((3S,4S)-3-Fluorotetrahydro-2H-pyran-4-yl)-6-(1H-pyrazol-4-yl)-5-(((5)-1,1,1-trifluoropropan-2-yl)oxy)-[1,2,4]triazolo[1,5-α]pyrazin-2-amine] | < 10
7 | CC(C)Oc1c(-c2cn[nH]c2)ncn2nc(NC3CCOC(C)C3)nc12 (single isomer, unassigned) [Example 6, 8-Isopropoxy-N-(2-methyltetrahydro-2H-pyran-4-yl)-7-(1H-pyrazol-4-yl)-[1,2,4]triazolo[1,5-c]pyrimidin-2-amine] | < 10
8 | Cc1cc(-c2c(-c3cn[nH]c3)ccn3nc(N[C@H]4CCOC[C@H]4F)nc23)c(F)cc1C#N [Example 2, 5-Fluoro-4-(2-(((3S,4S)-3-fluorotetrahydro-2H-pyran-4-yl)amino)-7-(1H-pyrazol-4-yl)-[1,2,4]triazolo[1,5-a]pyridin-8-yl)-2-methylbenzonitrile] | < 10
9 | CC(C)Oc1c(-c2cn[nH]c2)ccn2nc(N[C@H]3CCOC[C@H]3F)nc12 [Example 5, N-((3S,4S)-3-Fluorotetrahydro-2H-pyran-4-yl)-8-isopropoxy-7-(1H-pyrazol-4-yl)-[1,2,4]triazolo[1,5-α]pyridin-2-amine] | < 10
10 | CC(C)Oc1c(-c2cn[nH]c2)ncc2nc(N[C@H]3CCOC[C@H]3F)nn12 [Example 12, N-((3S,4S)-3-Fluorotetrahydro-2H-pyran-4-yl)-5-isopropoxy-6-(1H-pyrazol-4-yl)-[1,2,4]triazolo[1,5-α] pyrazin-2-amine] | < 10
11 | F[C@@H]1COCC[C@@H]1Nc1nc2c(N3CCCC(F)(F)C3)c(-c3cn[nH]c3)ccn2n1 [Example 4, 8-(3,3-Difluoropiperidin-1-yl)-N-((3S,4S)-3-fluorotetrahydro-2H-pyran-4-yl)-7-(1H-pyrazol-4-yl)-[1,2,4]triazolo[1,5-α]pyridin-2-amine] | < 10
12 | F[C@@H]1COCC[C@@H]1Nc1nc2cnc(-c3cn[nH]c3)c(N3CCCCC3)n2n1 [Example 13, N-((3S,4S)-3-Fluorotetrahydro-2H-pyran-4-yl)-5-(piperidin-1-yl)-6-(1H-pyrazol-4-yl)-[1,2,4]triazolo[1,5-α]pyrazin-2-amine] | < 10
13 | FC(F)C1(Oc2c(-c3cn[nH]c3)ncc3nc(NC4CCOCC4)nn23)CCC1 [Example 11, 5-(1-(Difluoromethyl)cyclobutoxy)-6-(1H-pyrazol-4-yl)-N-(tetrahydro-2H-pyran-4-yl)-[1,2,4] triazolo [1,5-α] pyrazin-2-amine] | < 10
